Experimental findings from patent publication US9938320B2, “Peptides for promoting angiogenesis and use thereof” (INDUSTRY-ACADEMIC COOPERATION FOUNDATION, SOOKMYUNG WOMEN'S …, priority 2010, dated 2018) are described below.

The test system of assay [1] is human umbilical vein endothelial cells (HUVECs). Description: Proliferation of HUVECs (CyQUANT kit). The assay is classed as cell-based. The following applies: 48 hours with peptide, negative control (untreated) = 100. The method, then:
In order to investigate the effect of the 4 peptides prepared in Example 1 on blood vessel formation, human umbilical vein endothelial cells (HUVECs) were treated with the peptide of the present invention and their proliferation was observed.
HUVECs were cultured in endothelial cell basal medium-2 (EBM-2, Clonetics Co., San Diego, USA) containing 2% fetal bovine serum (FBS). The cultured HUVECs were transferred to a 96-well plate, with 1000 cells per each well. After culturing for 24 hours followed by addition of the 4 peptides of the peptide of the present invention to each well, they were further cultured for 48 hours. The cells treated with VEGF instead of the peptide of the present invention and those treated with nothing were cultured under the same condition, as positive control group and negative control group, respectively. Upon completion of the culturing, the degree of cell proliferation was measured using the CyQUANT kit (Invitrogen, USA).

Assay [2] relates to HUVECs. Description: Migration of HUVECs through polycarbonate filter chamber. The assay is classed as cell-based, human. The note with it: 37° C. for 10 hours, negative control (untreated) = 100. How it is done:
In order to investigate the effect of the 4 peptides prepared in Example 1 on blood vessel formation, migration of HUVECs was measured.
The bottom portion of a chamber of a 24-well plate (Corning Costar, USA) having a polycarbonate filter with pores therebelow was coated with 0.5 mg/mL collagen type 1 ([…]). After adding EBM-2 containing the 4 peptides of the peptide of the present invention to the bottom portion of the chamber, HUVECs were inoculated at the upper portion of the chamber, with 1×10^5 cells per well. After incubation at 37° C. for 10 hours, the cells that had passed through the polycarbonate filter were fixed with methanol, stained with hematoxylin, and counted under a microscope.

Consider “NQES (Pep_10 Artificial Peptide for Promotion of Angiogenesis)”, for which, in assay [1], the “Cell proliferation (%)” value turned out to be 146.5%. Moreover, the “Cell migration (%)” value in assay [2] worked out at 173.2%.

In the case of “SEGQK (Pep_7 Artificial Peptide for Promotion of Angiogenesis)”, the “Cell proliferation (%)” value in assay [1] worked out at 203.3%. Also, the “Cell migration (%)” value in assay [2] is listed as 155.4%.

“PKES (Pep_9 Artificial Peptide for Promotion of Angiogenesis)”: the “Cell proliferation (%)” value in assay [1] was 212.5%. The “Cell migration (%)” value in assay [2] came out at 156.4%.

Regarding “SDRGA (Pep_8 Artificial Peptide for Promotion of Angiogenesis)”, in assay [1], the “Cell proliferation (%)” value came to 209.2%. Further, the “Cell migration (%)” value in assay [2] stood at 147.0%.

As to VEGF, the “Cell proliferation (%)” value in assay [1] turned out to be 166.0%. Besides, the “Cell migration (%)” value in assay [2] came to 146.3%.
